Patent publication US9925130B2, “Composition with zinc amino acid/trimethylglycine halide precursors” (Colgate-Palmolive Company, priority 2012, dated 2018)

Legend:
C. minutissimum = assay: Zone of inhibition test on TSA plates; type: cell-based; settings: Table 3, sample type not given
Experimental: (§1) A zone of inhibition test is conducted on several materials: zinc oxide and amino acid hydrohalide alone and a mixture formed from zinc oxide and amino acid hydrohalide. The method involves making a lawn of freshly prepared bacterial culture on TSA (trypticase soy agar) plates. Sterile filter paper discs are seeded with 20 μl of test sample (supernatant or mixture). Sample-coated filter paper discs are air dried and applied onto the bacterial lawn on TSA plates. Plates are incubated for 20 hours at 37° C.
Similar antibacterial efficacy is seen when tetrabasic zinc chloride is used in place of zinc oxide as the source of zinc ions.

S. aureus = assay: Zone of inhibition test on TSA plates; type: cell-based
Experimental: as §1

C. xerosis = assay: Zone of inhibition test on TSA plates; type: cell-based; settings: 20 h 37° C.
Experimental: as §1

S. epider. = assay: Zone of inhibition test on TSA plates; type: cell-based; settings: 20 h 37° C.
Experimental: as §1

[1] = Solubilization of zinc: free Zn2+ in supernatant by atomic absorption; type: physicochemical; settings: dispersed in water, equilibrated overnight
Source text: Ingredients are dispersed in water, equilibrated overnight, and the supernatant analyzed for free Zn^2+ by atomic absorption.

[2] = Hydrolysis reaction: pH and turbidity of diluted ZLC solutions before and after aging; type: physicochemical; settings: for pH after aging / turbidity after aging (NTU): 37° C. over 5 hours
Experimental: A 185 mg/ml solution of ZLC is prepared and diluted several-fold and aged in a 37° C. oven over 5 hours for turbidity studies. […] Turbidity of the solutions is measured using a nephelometer, results being given in nephelometric turbidity units (NTU).
The precipitates formed in the 8×, 16× and 32× diluted solutions are collected by centrifugation and identified as crystalline ZnO by PXRD. From the supernatant, a single crystal is grown and shown by X-ray diffraction to be Lysine Monohydrochloride Dihydrate (Lysine.HCl.2H2O).

[3] = target: Bovine Serum Albumin (BSA) (Bos taurus, UniProt P02769); assay: Flocculation of ZLC in the presence of protein (BSA): turbidity and pH; type: physicochemical; settings: for observation / pH / Turbidity (NTU): ZLC about 15 mg/ml, 5 hours 37° C.
Chain of Bovine Serum Albumin (BSA) (P02769 25-607): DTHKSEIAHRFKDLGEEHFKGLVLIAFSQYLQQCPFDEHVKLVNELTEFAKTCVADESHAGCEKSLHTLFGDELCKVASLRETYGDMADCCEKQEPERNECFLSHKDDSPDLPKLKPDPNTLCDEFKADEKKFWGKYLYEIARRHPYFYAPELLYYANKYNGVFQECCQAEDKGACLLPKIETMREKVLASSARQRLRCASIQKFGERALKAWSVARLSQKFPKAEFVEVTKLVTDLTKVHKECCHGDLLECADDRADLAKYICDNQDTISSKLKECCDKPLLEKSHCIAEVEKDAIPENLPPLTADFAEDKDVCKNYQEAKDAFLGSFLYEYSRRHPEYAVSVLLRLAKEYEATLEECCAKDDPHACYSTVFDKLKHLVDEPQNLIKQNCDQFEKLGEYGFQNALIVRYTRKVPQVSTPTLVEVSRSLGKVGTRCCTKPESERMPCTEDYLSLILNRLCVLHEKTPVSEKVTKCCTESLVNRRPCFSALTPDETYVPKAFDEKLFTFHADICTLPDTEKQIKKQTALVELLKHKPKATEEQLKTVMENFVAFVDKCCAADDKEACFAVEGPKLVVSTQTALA
Experimental: Turbidity and pH of solutions are measured 5 hours after the mixtures were placed in a 37° C. oven, and the results are shown in Table 6.

[4] = sample 1: DI water, 0% BSA, pH 6.4
[5] = sample 3: 1% BSA, pH adjusted to 5.1

**Q.** For `NCCCC[C@H](N)C(=O)O` [Lysine 4%, lysine], which “Zone of Inhibition” value (C. minutissimum) is on record?
**A.** The value was 0 mm.

**Q.** What about the “Zone of Inhibition” value (S. aureus; Table 3, sample type not given) of the same compound?
**A.** The value was 0 mm.

**Q.** Which results are given for `Cl.NCCCC[C@H](N)C(=O)O` [Lysine-HCl 23.2%, lysine hydrochloride]?
**A.** Zone of Inhibition (C. minutissimum): 0 mm; Zone of Inhibition (S. aureus; Dry Sample, As is, 20 h 37° C.): 0 mm; Zone of Inhibition (S. aureus; Table 3, sample type not given): 0 mm; Zone of Inhibition (S. aureus; Wet Sample, As is, 20 h 37° C.): 0 mm; Zone of Inhibition (C. xerosis; Dry Sample, As is): 0 mm; Zone of Inhibition (C. xerosis; Wet Sample, As is): 0 mm; Zone of Inhibition (S. epider.; Dry Sample, As is): 0 mm; Zone of Inhibition (S. epider.; Wet Sample, As is): 0 mm

**Q.** For `[O]=[Zn]` [ZnO(4%), zinc oxide], which “Free Zn” value [1] is on record?
**A.** The value was 11 ppm.

**Q.** And the “Zone of Inhibition” value (S. aureus; Dry Sample, Mixture, 20 h 37° C.)?
**A.** Its value is 7 mm.

**Q.** And the “Zone of Inhibition” value (S. aureus; Dry Sample, Supernatant, 20 h 37° C.)?
**A.** Its value is 0 mm.

**Q.** What about the “Zone of Inhibition” value (S. aureus; Wet Sample, Mixture, 20 h 37° C.) of the same compound?
**A.** The value was 7 mm.

**Q.** What about the “Zone of Inhibition” value (S. aureus; Wet Sample, Supernatant, 20 h 37° C.) of the same compound?
**A.** The value was 0 mm.

**Q.** What about the “Zone of Inhibition” value (C. xerosis; Dry Sample, Mixture) of the same compound?
**A.** The value was 0 mm.

**Q.** What about the “Zone of Inhibition” value (C. xerosis; Dry Sample, Supernatant) of the same compound?
**A.** The value was 0 mm.

**Q.** And the “Zone of Inhibition” value (C. xerosis; Wet Sample, Mixture)?
**A.** Its value is 0 mm.

**Q.** And the “Zone of Inhibition” value (C. xerosis; Wet Sample, Supernatant)?
**A.** The value was 0 mm.

**Q.** What about the “Zone of Inhibition” value (S. epider.; Dry Sample, Mixture) of the same compound?
**A.** The value was 10 mm.

**Q.** And the “Zone of Inhibition” value (S. epider.; Dry Sample, Supernatant)?
**A.** Its value is 0 mm.

**Q.** What about the “Zone of Inhibition” value (S. epider.; Wet Sample, Mixture) of the same compound?
**A.** Its value is 12 mm.

**Q.** And the “Zone of Inhibition” value (S. epider.; Wet Sample, Supernatant)?
**A.** Its value is 0 mm.

**Q.** What does the source list for `[Cl-].[Cl-].[OH-].[OH-].[OH-].[OH-].[OH-].[OH-].[OH-].[OH-].[Zn+2].[Zn+2].[Zn+2].[Zn+2].[Zn+2]` [TBZC (4%), Tetrabasic zinc chloride]?
**A.** Zone of Inhibition (S. aureus; Table 3, Mixture): 6 mm; Zone of Inhibition (S. aureus; Table 3, Supernat): 6 mm

**Q.** Which “initial pH” value ([2]; 5.78 mg/ml) does the source give for `NCCCCC(N)C(=O)O.NCCCCC(N)C(=O)O.O.O.[Cl-].[Cl-].[Zn+2]` (centres unmarked) [ZLC, [Zn(Lysine)2Cl]^+Cl^−.2H2O] here?
**A.** Its value is 8.

**Q.** What about the pH after aging ([2]; 5.78 mg/ml) of the same compound?
**A.** Its pH after aging is 8.

**Q.** And the “turbidity after aging (NTU)” value ([2]; 5.78 mg/ml)?
**A.** Its value is >1000 NTU.

**Q.** What about the “initial pH” value ([2]; 11.56 mg/ml) of the same compound?
**A.** The value was 7.8.

**Q.** What about the pH after aging ([2]; 11.56 mg/ml) of the same compound?
**A.** The pH after aging was 7.8.

**Q.** What about the “turbidity after aging (NTU)” value ([2]; 11.56 mg/ml) of the same compound?
**A.** The value was >1000 NTU.

**Q.** What about the “initial pH” value ([2]; 23.125 mg/ml) of the same compound?
**A.** Its value is 7.7.

**Q.** What about the “initial turbidity (NTU)” value ([2]; 23.125 mg/ml) of the same compound?
**A.** Its value is 0.7 NTU.

**Q.** And the pH after aging ([2]; 23.125 mg/ml)?
**A.** Its pH after aging is 7.7.

**Q.** And the “initial pH” value ([2]; 46.25 mg/ml)?
**A.** The value was 7.4.

**Q.** And the “initial turbidity (NTU)” value ([2]; 46.25 mg/ml)?
**A.** The value was 1.5 NTU.

**Q.** And the pH after aging ([2]; 46.25 mg/ml)?
**A.** The pH after aging was 7.4.

**Q.** And the “turbidity after aging (NTU)” value ([2]; 46.25 mg/ml)?
**A.** Its value is 2.8 NTU.

**Q.** What about the “initial pH” value ([2]; 92.5 mg/ml) of the same compound?
**A.** The value was 7.

**Q.** And the “initial turbidity (NTU)” value ([2]; 92.5 mg/ml)?
**A.** The value was 2.8 NTU.

**Q.** What about the pH after aging ([2]; 92.5 mg/ml) of the same compound?
**A.** Its pH after aging is 7.

**Q.** And the “turbidity after aging (NTU)” value ([2]; 92.5 mg/ml)?
**A.** Its value is 2.6 NTU.

**Q.** What about the “initial pH” value ([2]; 185 mg/ml) of the same compound?
**A.** Its value is 6.8.

**Q.** And the “initial turbidity (NTU)” value ([2]; 185 mg/ml)?
**A.** Its value is 4.7 NTU.

**Q.** What about the pH after aging ([2]; 185 mg/ml) of the same compound?
**A.** Its pH after aging is 6.8.

**Q.** And the “turbidity after aging (NTU)” value ([2]; 185 mg/ml)?
**A.** The value was 4.1 NTU.

**Q.** And the “observation as the 185 mg/ml solution is diluted” value ([2]; diluted several-fold, 37° C.)?
**A.** The value was “white precipitate forms”.

**Q.** And the “stability of the complex upon dilution” value ([2]; precipitates of 8×, 16×, 32× dilutions identified as crystalline ZnO by PXRD, Lysine.HCl.2H2O from supernatant)?
**A.** Its value is “disassociates upon dilution, with consequent precipitation of zinc oxide”.

**Q.** And the flocculation of proteins ([3]; proteins such as BSA)?
**A.** The flocculation of proteins was “ability to flocculate proteins”.

**Q.** And the observation [3, 4]?
**A.** Its observation is “slightly cloudy”.

**Q.** And the pH [3, 4]?
**A.** Its pH is 8.

**Q.** And the “Turbidity (NTU)” value ([3]; sample 2: 1% BSA, pH 7.2)?
**A.** The value was >1000 NTU.

**Q.** What about the observation ([3]; sample 2: 1% BSA, pH 7.2) of the same compound?
**A.** The observation was “precipitate”.

**Q.** And the pH ([3]; sample 2: 1% BSA, pH 7.2)?
**A.** Its pH is 8.2.

**Q.** And the “Turbidity (NTU)” value [3, 5]?
**A.** The value was >1000 NTU.

**Q.** What about the observation [3, 5] of the same compound?
**A.** The observation was “precipitate”.

**Q.** And the pH [3, 5]?
**A.** The pH was 8.

**Q.** For `N=C(N)NCCC[C@H](N)C(=O)O` [Arginine 4%, arginine], which “Zone of Inhibition” value (C. minutissimum) is on record?
**A.** Its value is 0 mm.

**Q.** And the “Zone of Inhibition” value (S. aureus; Table 3, sample type not given)?
**A.** The value was 0 mm.
